Measurements: PubChem BioAssay AID270 (DTP/NCI, 2004)
Where “and” joins values, the source holds several entries; their conditions need not be identical. Equal values may be shown once. Inconclusive results are not listed.

System: BDF1 mice, s.c. Lewis lung carcinoma, T/C %
Test: NCI In Vivo Anticancer Drug Screen. Data for tumor model Lewis Lung Carcinoma (subcutaneous) in B6D2F1 (BDF1) mice
Outline: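 First, mice carry a transplantable tumor. Next, groups receive either compound or vehicle. Finally, survival or tumor dimensions in the dosed animals are divided by the corresponding control figure.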

[1] = endpoint: mean tumor weight, dose: 25.0 mg/kg/injection, schedule: Q01DX011 (ip), vehicle: saline, higher = larger tumour
[2] = endpoint: median survival time, dose: 25.0 mg/kg/injection, schedule: Q01DX009 (ip), vehicle: Klucel (hydroxypropylcellulose) (HPC), higher = longer survival
[3] = endpoint: median survival time, dose: 25.0 mg/kg/injection, schedule: Q01DX009 (ip), vehicle: saline with Tween-80, higher = longer survival
[4] = endpoint: median survival time, dose: 50.0 mg/kg/injection, schedule: Q01DX009 (ip), vehicle: saline with Tween-80, higher = longer survival
[5] = endpoint: median survival time, dose: 75.0 mg/kg/injection, schedule: Q01DX009 (ip), vehicle: saline with Tween-80, higher = longer survival

COc1ccccc1NC(=O)N(CCCl)N=O
T/C (endpoint: median survival time, dose: 0.39 mg/kg/injection, schedule: Q01DX009 (ip), vehicle: saline with Tween-80, higher = longer survival): 95 % of control | T/C (endpoint: median survival time, dose: 0.78 mg/kg/injection, schedule: Q01DX009 (ip), vehicle: saline with Tween-80, higher = longer survival): 88 % of control | T/C (endpoint: median survival time, dose: 1.56 mg/kg/injection, schedule: Q01DX009 (ip), vehicle: saline with Tween-80, higher = longer survival): 93 % of control | T/C (endpoint: median survival time, dose: 3.13 mg/kg/injection, schedule: Q01DX009 (ip), vehicle: saline with Tween-80, higher = longer survival): 98 % of control

CC1CCCCN1 (centres undefined)
T/C (endpoint: mean tumor weight, dose: 12.5 mg/kg/injection, schedule: Q01DX011 (ip), vehicle: saline, higher = larger tumour): 95 % of control | T/C [1]: 85 % of control | T/C (endpoint: mean tumor weight, dose: 50.0 mg/kg/injection, schedule: Q01DX011 (ip), vehicle: saline, higher = larger tumour): 80 % of control

O=NN(CCF)C(=O)NC1CCCCC1
T/C (endpoint: median survival time, dose: 5.0 mg/kg/injection, schedule: Q01DX001 (ip), vehicle: Klucel (hydroxypropylcellulose) (HPC), higher = longer survival): 101 % of control (2×) and 119 % of control | T/C (endpoint: median survival time, dose: 5.1 mg/kg/injection, schedule: Q01DX001 (ip), vehicle: other, higher = longer survival): 96 % of control | T/C (endpoint: median survival time, dose: 10.0 mg/kg/injection, schedule: Q01DX001 (ip), vehicle: Klucel (hydroxypropylcellulose) (HPC), higher = longer survival): 90 % of control and 116 % of control and 119 % of control | T/C (endpoint: median survival time, dose: 10.2 mg/kg/injection, schedule: Q01DX001 (ip), vehicle: other, higher = longer survival): 105 % of control | T/C (endpoint: median survival time, dose: 20.0 mg/kg/injection, schedule: Q01DX001 (ip), vehicle: Klucel (hydroxypropylcellulose) (HPC), higher = longer survival): 101 % of control and 109 % of control and 119 % of control | T/C (endpoint: median survival time, dose: 20.4 mg/kg/injection, schedule: Q01DX001 (ip), vehicle: other, higher = longer survival): 121 % of control | T/C (endpoint: median survival time, dose: 40.0 mg/kg/injection, schedule: Q01DX001 (ip), vehicle: Klucel (hydroxypropylcellulose) (HPC), higher = longer survival): 182 % of control

CC[C@@H](C(=O)[C@@H](C)[C@@H](O)[C@H](C)CCc1ccc(C)c(O)c1C(=O)O)[C@H]1O[C@](CC)([C@H]2CC[C@](O)(CC)[C@H](C)O2)C[C@@H]1C
T/C (endpoint: median survival time, dose: 0.78 mg/kg/injection, schedule: Q01DX009 (ip), vehicle: Klucel (hydroxypropylcellulose) (HPC), higher = longer survival): 113 % of control | T/C (endpoint: median survival time, dose: 1.56 mg/kg/injection, schedule: Q01DX009 (ip), vehicle: Klucel (hydroxypropylcellulose) (HPC), higher = longer survival): 111 % of control | T/C (endpoint: median survival time, dose: 3.12 mg/kg/injection, schedule: Q01DX009 (ip), vehicle: Klucel (hydroxypropylcellulose) (HPC), higher = longer survival): 93 % of control | T/C (endpoint: median survival time, dose: 6.25 mg/kg/injection, schedule: Q01DX009 (ip), vehicle: Klucel (hydroxypropylcellulose) (HPC), higher = longer survival): 96 % of control | T/C [2]: 96 % of control

COc1cc(C=Nc2ccc(-n3ccnc3C)cc2)ccc1N(CCCl)CCCl
T/C (endpoint: median survival time, dose: 2.5 mg/kg/injection, schedule: Q01DX009 (ip), vehicle: Klucel (hydroxypropylcellulose) (HPC), higher = longer survival): 116 % of control | T/C (endpoint: median survival time, dose: 5.0 mg/kg/injection, schedule: Q01DX009 (ip), vehicle: Klucel (hydroxypropylcellulose) (HPC), higher = longer survival): 103 % of control | T/C (endpoint: median survival time, dose: 10.0 mg/kg/injection, schedule: Q01DX009 (ip), vehicle: Klucel (hydroxypropylcellulose) (HPC), higher = longer survival): 113 % of control

O=C1N(Cl)C(=O)C(c2ccc(Cl)cc2)(c2ccc(Cl)cc2)N1Cl
T/C (endpoint: mean tumor weight, dose: 17.0 mg/kg/injection, schedule: Q01DX011 (ip), vehicle: other, higher = larger tumour): 84 % of control | T/C (endpoint: mean tumor weight, dose: 33.0 mg/kg/injection, schedule: Q01DX011 (ip), vehicle: other, higher = larger tumour): 68 % of control | T/C (endpoint: mean tumor weight, dose: 50.0 mg/kg/injection, schedule: Q01DX011 (ip), vehicle: other, higher = larger tumour): 23 % of control | T/C (endpoint: mean tumor weight, dose: 75.0 mg/kg/injection, schedule: Q01DX011 (ip), vehicle: other, higher = larger tumour): 25 % of control | T/C (endpoint: mean tumor weight, dose: 112.0 mg/kg/injection, schedule: Q01DX011 (ip), vehicle: other, higher = larger tumour): 36 % of control | T/C (endpoint: mean tumor weight, dose: 224.0 mg/kg/injection, schedule: Q01DX011 (ip), vehicle: other, higher = larger tumour): 52 % of control | T/C (endpoint: median survival time, dose: 12.5 mg/kg/injection, schedule: Q01DX009 (ip), vehicle: Klucel (hydroxypropylcellulose) (HPC), higher = longer survival): 95 % of control | T/C [2]: 87 % of control | T/C (endpoint: median survival time, dose: 50.0 mg/kg/injection, schedule: Q01DX009 (ip), vehicle: Klucel (hydroxypropylcellulose) (HPC), higher = longer survival): 101 % of control

CCC[C@H]1CCCCN1
T/C [1]: 88 % of control

Cc1nnc(NS(=O)(=O)c2ccc(N=Nc3nc4[nH]c(N)nc(=S)c4[nH]3)cc2)s1
T/C (endpoint: median survival time, dose: 25.0 mg/kg/injection, schedule: Q01DX009 (ip), vehicle: saline, higher = longer survival): 109 % of control | T/C (endpoint: median survival time, dose: 50.0 mg/kg/injection, schedule: Q01DX009 (ip), vehicle: saline, higher = longer survival): 106 % of control | T/C (endpoint: median survival time, dose: 100.0 mg/kg/injection, schedule: Q01DX009 (ip), vehicle: saline, higher = longer survival): 98 % of control | T/C (endpoint: median survival time, dose: 200.0 mg/kg/injection, schedule: Q01DX009 (ip), vehicle: saline, higher = longer survival): 98 % of control

CC[C@H]1CN2CCc3cc(OC)c(OC)cc3[C@@H]2C[C@@H]1C[C@H]1NCCc2cc(OC)c(OC)cc21
T/C (endpoint: mean tumor weight, dose: 1.5 mg/kg/injection, schedule: Q01DX011 (ip), vehicle: saline, higher = larger tumour): 86 % of control

N/N=C(\N)c1nn(C2OC(CO)C(O)C2O)c2ncnc(N)c12 (centres undefined)
T/C (endpoint: median survival time, dose: 40.0 mg/kg/injection, schedule: Q01DX005 (ip), vehicle: saline, higher = longer survival): 124 % of control | T/C (endpoint: median survival time, dose: 80.0 mg/kg/injection, schedule: Q01DX005 (ip), vehicle: saline, higher = longer survival): 104 % of control

O=C1c2c(O)ccc(O)c2C(=O)c2c(NCCNCCO)ccc(NCCNCCO)c21
T/C (endpoint: median survival time, dose: 0.25 mg/kg/injection, schedule: Q01DX009 (ip), vehicle: acid diluted with saline, higher = longer survival): 88 % of control | T/C (endpoint: median survival time, dose: 0.5 mg/kg/injection, schedule: Q01DX009 (ip), vehicle: acid diluted with saline, higher = longer survival): 95 % of control | T/C (endpoint: median survival time, dose: 0.5 mg/kg/injection, schedule: Q01DX009 (ip), vehicle: saline with Tween-80, higher = longer survival): 86 % of control and 106 % of control and 114 % of control | T/C (endpoint: median survival time, dose: 1.0 mg/kg/injection, schedule: Q01DX009 (ip), vehicle: acid diluted with saline, higher = longer survival): 102 % of control | T/C (endpoint: median survival time, dose: 1.0 mg/kg/injection, schedule: Q01DX009 (ip), vehicle: saline with Tween-80, higher = longer survival): 104 % of control and 105 % of control and 106 % of control | T/C (endpoint: median survival time, dose: 1.0 mg/kg/injection, schedule: Q## X004 (ip), vehicle: acid diluted with saline, higher = longer survival): 89 % of control | T/C (endpoint: median survival time, dose: 2.0 mg/kg/injection, schedule: Q01DX009 (ip), vehicle: saline with Tween-80, higher = longer survival): 95 % of control | T/C (endpoint: median survival time, dose: 2.0 mg/kg/injection, schedule: Q## X004 (ip), vehicle: acid diluted with saline, higher = longer survival): 89 % of control | T/C (endpoint: median survival time, dose: 4.0 mg/kg/injection, schedule: Q## X004 (ip), vehicle: acid diluted with saline, higher = longer survival): 101 % of control

CC(=O)Oc1ccc(/C=N/NC(N)=S)nc1
T/C (endpoint: median survival time, dose: 9.4 mg/kg/injection, schedule: Q01DX009 (ip), vehicle: saline with Tween-80, higher = longer survival): 97 % of control | T/C (endpoint: median survival time, dose: 18.8 mg/kg/injection, schedule: Q01DX009 (ip), vehicle: saline with Tween-80, higher = longer survival): 97 % of control | T/C [3]: 100 % of control | T/C (endpoint: median survival time, dose: 37.5 mg/kg/injection, schedule: Q01DX009 (ip), vehicle: saline with Tween-80, higher = longer survival): 101 % of control | T/C [4]: 107 % of control | T/C [5]: 117 % of control | T/C (endpoint: median survival time, dose: 100.0 mg/kg/injection, schedule: Q01DX009 (ip), vehicle: saline with Tween-80, higher = longer survival): 117 % of control | T/C (endpoint: median tumor weight (est.), dose: 24.0 mg/kg/injection, schedule: Q03HX024 (ip), vehicle: saline with Tween-80, higher = larger tumour): 96 % of control | T/C (endpoint: median tumor weight (est.), dose: 36.0 mg/kg/injection, schedule: Q03HX024 (ip), vehicle: saline with Tween-80, higher = larger tumour): 41 % of control

COc1cc2cc(c1Cl)N(C)C(=O)C[C@H](OC(=O)[C@H](C)N(C)C(C)=O)[C@]1(C)O[C@H]1[C@H](C)[C@@H]1C[C@@](O)(NC(=O)O1)[C@H](OC)C=C/C=C(\C)C2
T/C (endpoint: median survival time, dose: 0.04 mg/kg/injection, schedule: Q04DX003 (ip), vehicle: saline, higher = longer survival): 112 % of control | T/C (endpoint: median survival time, dose: 0.08 mg/kg/injection, schedule: Q04DX003 (ip), vehicle: saline, higher = longer survival): 102 % of control | T/C (endpoint: median survival time, dose: 0.15 mg/kg/injection, schedule: Q04DX003 (ip), vehicle: saline, higher = longer survival): 110 % of control | T/C (endpoint: median survival time, dose: 0.6 mg/kg/injection, schedule: Q04DX003 (ip), vehicle: saline, higher = longer survival): 96 % of control

CCCCC[C@H](O)/C=C/[C@@H]1[C@@H](C/C=C\CCCC(=O)O)[C@@H](O)C[C@H]1O
T/C (endpoint: median survival time, dose: 2.5 mg/kg/injection, schedule: Q04DX003 (ip), vehicle: saline, higher = longer survival): 118 % of control | T/C (endpoint: median survival time, dose: 5.0 mg/kg/injection, schedule: Q04DX003 (ip), vehicle: saline, higher = longer survival): 105 % of control | T/C (endpoint: median survival time, dose: 10.0 mg/kg/injection, schedule: Q04DX003 (ip), vehicle: saline, higher = longer survival): 95 % of control | T/C (endpoint: median survival time, dose: 20.0 mg/kg/injection, schedule: Q04DX003 (ip), vehicle: saline, higher = longer survival): 118 % of control | T/C (endpoint: median survival time, dose: 40.0 mg/kg/injection, schedule: Q04DX003 (ip), vehicle: saline, higher = longer survival): 87 % of control | T/C (endpoint: median survival time, dose: 80.0 mg/kg/injection, schedule: Q04DX003 (ip), vehicle: saline, higher = longer survival): 93 % of control | T/C (endpoint: median survival time, dose: 160.0 mg/kg/injection, schedule: Q04DX003 (ip), vehicle: saline, higher = longer survival): 87 % of control | T/C (endpoint: median survival time, dose: 320.0 mg/kg/injection, schedule: Q04DX003 (ip), vehicle: saline, higher = longer survival): 106 % of control

NC(=S)N/N=C\c1nccc2c(N)cccc12
T/C (endpoint: median survival time, dose: 6.25 mg/kg/injection, schedule: Q01DX009 (ip), vehicle: saline with Tween-80, higher = longer survival): 107 % of control and 110 % of control | T/C (endpoint: median survival time, dose: 12.5 mg/kg/injection, schedule: Q01DX009 (ip), vehicle: saline with Tween-80, higher = longer survival): 94 % of control and 113 % of control | T/C [3]: 112 % of control and 117 % of control | T/C [4]: 105 % of control | T/C [5]: 110 % of control and 124 % of control
